Laboratory results as given in US20230348426A1, “OXOPYRROLIDINE FPR2 AGONISTS” (Bristol-Myers Squibb Company, priority 2020, published 2023).

Key:
human FPR1 = human FPR1 (Homo sapiens (Human), UniProt P21462); test: FPR1 cyclic adenosine monophosphate (cAMP) assay; format: cell-based; conditions: CHO cells overexpressing human FPR1; forskolin 10 µM; inhibition of cAMP production; read-out: hFPR1 cAMP EC50
From the text: (§1) N-formyl peptide receptors (FPRs) are a family of chemo attractant receptors that facilitate leukocyte response during inflammation. FPRs belong to the seven-transmembrane G protein-coupled receptor superfamily and are linked to inhibitory G-proteins (Gi). Three family members (FPR1, FPR2 and FPR3) have been identified in humans and are predominantly found in myeloid cells with varied distribution and have also been reported in multiple organs and tissues. After agonist binding, the FPRs activate a multitude of physiological pathways, such as intra cellular signaling transduction, Ca^2+ mobilization and transcription. The family interacts with a diverse set of ligands that includes proteins, polypeptides and fatty acid metabolites which activate both pro-inflammatory and pro-resolution downstream responses. FPR2 and FPR1 Cyclic Adenosine Monophosphate (cAMP) Assays were used to measure the activity of the compounds in this patent.
FPR2 and FPR1 Cyclic Adenosine Monophosphate (cAMP) Assays. A mixture of forskolin (5 µM final for FPR2 or 10 µM final for FPR1) and IBMX (200 µM final) were added to 384-well Proxiplates (Perkin-Elmer) pre-dotted with test compounds in DMSO (1% final) at final concentrations in the range of 0.020 nM to 100 µM. Chinese Hamster Ovary cells (CHO) overexpressing human FPR1 or human FPR2 receptors were cultured in F-12 (Ham’s) medium supplemented with 10% qualified FBS, 250 µg/ml zeocin and 300 µg/ml hygromycin (Life Technologies). Reactions were initiated by adding 2,000 human FPR2 cells per well or 4,000 human FPR1 cells per well in Dulbecco’s PBS (with calcium and magnesium) (Life Technologies) supplemented with 0.1% BSA (Perkin-Elmer). The reaction mixtures were incubated for 30 min at room temperature. The level of intracellular cAMP was determined using the HTRF HiRange cAMP assay reagent kit (Cisbio) according to manufacturer’s instruction. Solutions of cryptate conjugated anti-cAMP and d2 flurorophore-labelled cAMP were made in a supplied lysis buffer separately. Upon completion of the reaction, the cells were lysed with equal volume of the d2-cAMP solution and anti-cAMP solution. […] The potency and activity of a compound to inhibit cAMP production was then determined by fitting to a 4-parametric logistic equation from a plot of cAMP level versus compound concentrations.

human FPR2 = human FPR2 (Homo sapiens (Human), UniProt P25090); test: FPR2 cyclic adenosine monophosphate (cAMP) assay; format: cell-based; conditions: CHO cells overexpressing human FPR2; forskolin 5 µM; inhibition of cAMP production; read-out: hFPR2 cAMP2 EC50
From the text: as §1
FPR2 and FPR1 Cyclic Adenosine Monophosphate (cAMP) Assays. A mixture of forskolin (5 µM final for FPR2 or 10 µM final for FPR1) and IBMX (200 µM final) were added to 384-well Proxiplates (Perkin-Elmer) pre-dotted with test compounds in DMSO (1% final) at final concentrations in the range of 0.020 nM to 100 µM. Chinese Hamster Ovary cells (CHO) overexpressing human FPR1 or human FPR2 receptors were cultured in F-12 (Ham’s) medium supplemented with 10% qualified FBS, 250 µg/ml zeocin and 300 µg/ml hygromycin (Life Technologies). Reactions were initiated by adding 2,000 human FPR2 cells per well or 4,000 human FPR1 cells per well in Dulbecco’s PBS (with calcium and magnesium) (Life Technologies) supplemented with 0.1% BSA (Perkin-Elmer). The reaction mixtures were incubated for 30 min at room temperature. The level of intracellular cAMP was determined using the HTRF HiRange cAMP assay reagent kit (Cisbio) according to manufacturer’s instruction. Solutions of cryptate conjugated anti-cAMP and d2 flurorophore-labelled cAMP were made in a supplied lysis buffer separately. Upon completion of the reaction, the cells were lysed with equal volume of the d2-cAMP solution and anti-cAMP solution. After a 1-h room temperature incubation, time-resolved fluorescence intensity was measured using the Envision (Perkin-Elmer) at 400 nm excitation and dual emission at 590 nm and 665 nm. A calibration curve was constructed with an external cAMP standard at concentrations ranging from 1 µM to 0.1 pM by plotting the fluorescent intensity ratio from 665 nm emission to the intensity from the 590 nm emission against cAMP concentrations. The potency and activity of a compound to inhibit cAMP production was then determined by fitting to a 4-parametric logistic equation from a plot of cAMP level versus compound concentrations.

Chain of human FPR1 (P21462 whole entry): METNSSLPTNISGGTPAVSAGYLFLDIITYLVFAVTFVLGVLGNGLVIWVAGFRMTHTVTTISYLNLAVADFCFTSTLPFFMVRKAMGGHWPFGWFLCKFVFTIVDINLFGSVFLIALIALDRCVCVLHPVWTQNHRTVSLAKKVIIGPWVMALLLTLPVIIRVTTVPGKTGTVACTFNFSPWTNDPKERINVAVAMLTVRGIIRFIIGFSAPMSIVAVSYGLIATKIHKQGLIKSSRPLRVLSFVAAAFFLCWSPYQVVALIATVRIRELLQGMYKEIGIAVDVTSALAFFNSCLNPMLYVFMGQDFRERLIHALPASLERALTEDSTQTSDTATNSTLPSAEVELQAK
Chain of human FPR2 (P25090 whole entry): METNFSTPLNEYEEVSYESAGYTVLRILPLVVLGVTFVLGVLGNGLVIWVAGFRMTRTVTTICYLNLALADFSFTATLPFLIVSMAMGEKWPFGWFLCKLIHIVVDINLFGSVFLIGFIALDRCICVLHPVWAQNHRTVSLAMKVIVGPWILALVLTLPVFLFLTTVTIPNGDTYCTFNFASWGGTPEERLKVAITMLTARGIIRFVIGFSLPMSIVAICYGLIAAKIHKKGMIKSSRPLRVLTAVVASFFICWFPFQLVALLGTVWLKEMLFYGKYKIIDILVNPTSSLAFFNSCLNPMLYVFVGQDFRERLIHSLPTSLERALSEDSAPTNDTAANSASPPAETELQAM

Row | EC50 (human FPR1) | EC50 (human FPR2) | SMILES
1 | 290 nM | 1.7 nM | COc1cc(F)c([C@@H]2CN(c3cccn(CC(O)C(F)(F)F)c3=O)C(=O)[C@H]2NC(=O)c2ccc(OC(F)F)cc2)c(F)c1 (single isomer, unassigned) [Example 4]
2 | 14 nM | 2.9 nM | COc1cc(F)c([C@@H]2CN(c3cccn(CC(O)C(F)(F)F)c3=O)C(=O)[C@H]2NC(=O)c2ccc(OC(F)F)cc2)c(F)c1 (single isomer, unassigned) [Example 5]
3 | 4200 nM | 28 nM | COc1cc(F)c([C@@H]2CN(c3cccnc3C#N)C(=O)[C@H]2NC(=O)c2ccc(OC(F)F)cc2)c(F)c1 [Example 1, N-((3S,4R)-1-(2-cyanopyridin-3-yl)-4-(2,6-difluoro-4-methoxyphenyl)-2-oxopyrrolidin-3-yl)-4-(difluoromethoxy)benzamide]
4 | 1700 nM | 29 nM | COc1cc(F)c([C@@H]2CN(CC3CC3)C(=O)[C@H]2NC(=O)c2ccc(OC(F)F)cc2)c(F)c1 [Example 3, N-((3S,4R)-1-(cyclopropylmethyl)-4-(2,6-difluoro-4-methoxyphenyl)-2-oxopyrrolidin-3-yl)-4-(difluoromethoxy)benzamide]
5 | 650 nM | 5.1 nM | COc1cc(F)c([C@@H]2CN(c3nc(Cl)ccc3C#N)C(=O)[C@H]2NC(=O)c2ccc(OC(F)F)cc2)c(F)c1 [Example 6]
6 | 1300 nM | 10 nM | COc1cc(F)c([C@@H]2CN(c3ncccc3C(F)(F)F)C(=O)[C@H]2NC(=O)c2ccc(OC(F)F)cc2)c(F)c1 [Example 7]
7 | 280 nM | 15 nM | COc1cc(F)c([C@@H]2CN(c3cc(OC)ccc3F)C(=O)[C@H]2NC(=O)c2ccc(OC(F)(F)F)cc2)c(F)c1 [Example 8]
8 | 290 nM | 50 nM | COc1cc(F)c([C@@H]2CN(c3cccc(=O)n3C)C(=O)[C@H]2NC(=O)c2ccc(OC(F)F)cc2)c(F)c1 [Example 10]
9 | 86 nM | 31 nM | COc1cc(F)c([C@@H]2CN(c3cccc(=O)n3C)C(=O)[C@H]2NC(=O)c2ccc(OC(F)(F)F)cc2)c(F)c1 [Example 11]
10 | > 10000 nM | 91 nM | COc1cc(F)c([C@@H]2CN(c3cc(Cl)cc(C(F)(F)F)c3)C(=O)[C@H]2NC(=O)c2ccc(OC(F)F)cc2)c(F)c1 [Example 12]
11 | 85 nM | 45 nM | COc1cc(F)c([C@@H]2CN(c3cc(P(C)(C)=O)ccn3)C(=O)[C@H]2NC(=O)c2ccc(OC(F)(F)F)cc2)c(F)c1 [Example 13]
12 | 43 nM | 37 nM | COc1cc(F)c([C@@H]2CN(c3cc(F)cc(OC(C)C)c3)C(=O)[C@H]2NC(=O)c2ccc(OC(F)(F)F)cc2)c(F)c1 [Example 14]
13 | 1100 nM | 22 nM | COc1cc(F)c([C@@H]2CN(c3ncccc3C#N)C(=O)[C@H]2NC(=O)c2ccc(OC(F)(F)F)cc2)c(F)c1 [Example 15]
14 | 69 nM | 36 nM | COc1cc(F)c([C@@H]2CN(Cc3ccccc3P(C)(C)=O)C(=O)[C@H]2NC(=O)c2ccc(OC(F)(F)F)cc2)c(F)c1 [Example 17]
15 | 200 nM | 37 nM | COc1cc(F)c([C@@H]2CN(Cc3ccccc3P(C)(C)=O)C(=O)[C@H]2NC(=O)c2ccc(OC(F)F)cc2)c(F)c1 [Example 18]
16 | 540 nM | 24 nM | COc1cc(F)c([C@@H]2CN(c3ccccc3P(C)(C)=O)C(=O)[C@H]2NC(=O)c2ccc(OC(F)(F)F)cc2)c(F)c1 [Example 19]
17 | 560 nM | 32 nM | COc1cc(F)c([C@@H]2CN(CC3CC3)C(=O)[C@H]2NC(=O)c2ccc(OC(F)(F)F)cc2)c(F)c1 [Example 20]
18 | 2300 nM | 35 nM | COc1cc(F)c([C@@H]2CN(c3cccnc3C#N)C(=O)[C@H]2NC(=O)c2ccc(OC(F)(F)F)cc2)c(F)c1 [Example 21]
19 | 3200 nM | 13 nM | COc1cc(F)c([C@@H]2CN(c3ncccc3P(C)(C)=O)C(=O)[C@H]2NC(=O)c2ccc(OC(F)(F)F)cc2)c(F)c1 [Example 22]

Row | EC50 (human FPR1) | EC50 (human FPR2) | SMILES
20 | 1500 nM | 28 nM | COc1ccnc(N2C[C@@H](c3c(F)cc(OC)cc3F)[C@H](NC(=O)c3ccc(OC(F)(F)F)cc3)C2=O)c1 [Example 23]
21 | 300 nM | 45 nM | COc1cc(F)c([C@@H]2CN(c3cccc(C(F)F)n3)C(=O)[C@H]2NC(=O)c2ccc(OC(F)(F)F)cc2)c(F)c1 [Example 24]
22 | > 10000 nM | 35 nM | COc1cc(F)c([C@@H]2CN(c3ncccc3P(C)(C)=O)C(=O)[C@H]2NC(=O)c2ccc(OC(F)F)cc2)c(F)c1 [Example 25]
23 | 27 nM | 35 nM | COc1cc(F)c([C@@H]2CN(c3ccc(=O)n(C)c3)C(=O)[C@H]2NC(=O)c2ccc(OC(F)(F)F)cc2)c(F)c1 [Example 26]
24 | 570 nM | 27 nM | COc1cc(F)c([C@@H]2CN(c3ncccc3CO)C(=O)[C@H]2NC(=O)c2ccc(OC(F)(F)F)cc2)c(F)c1 [Example 27]
25 | 1100 nM | 7 nM | COc1cc(F)c([C@@H]2CN(c3ncccc3F)C(=O)[C@H]2NC(=O)c2ccc(OC(F)(F)F)cc2)c(F)c1 [Example 28]
26 | 110 nM | 51 nM | COc1cc(F)c([C@@H]2CN(c3cc(F)cc(OC(C)C)c3)C(=O)[C@H]2NC(=O)c2ccc(OC(F)F)cc2)c(F)c1 [Example 29]
27 | 750 nM | 10 nM | COc1cc(F)c([C@@H]2CN(c3cccnc3P(C)(C)=O)C(=O)[C@H]2NC(=O)c2ccc(OC(F)F)cc2)c(F)c1 [Example 30]
28 | 150 nM | 10 nM | COc1cc(F)c([C@@H]2CN(c3ccccc3P(C)(C)=O)C(=O)[C@H]2NC(=O)c2ccc(OC(F)F)cc2)c(F)c1 [Example 31]
29 | 960 nM | 18 nM | COc1ccnc(N2C[C@@H](c3c(F)cc(OC)cc3F)[C@H](NC(=O)c3ccc(OC(F)F)cc3)C2=O)c1 [Example 32]
30 | 1610 nM | 5 nM | COc1cc(F)c([C@@H]2CN(c3ncccc3F)C(=O)[C@H]2NC(=O)c2ccc(OC(F)F)cc2)c(F)c1 [Example 33]
31 | 300 nM | 3.8 nM | COc1cc(F)c([C@@H]2CN(c3cccn(C)c3=O)C(=O)[C@H]2NC(=O)c2ccc(OC(F)F)cc2)c(F)c1 [Example 34]
32 | > 10000 nM | 3.1 nM | COc1cc(N2CCN(C)CC2)nc(N2C[C@@H](c3c(F)cc(OC)cc3F)[C@H](NC(=O)c3ccc(OC(F)F)cc3)C2=O)c1 [Example 35]
33 | – | 2.9 nM | COc1cc(F)c([C@@H]2CN(c3c(C)ccn(CC(C)O)c3=O)C(=O)[C@H]2NC(=O)c2ccc(OC(F)(F)F)cc2)c(F)c1 (stereo partly drawn) [Example 400]
34 | – | 1.5 nM | COCC(CO)n1ccc(C)c(N2C[C@@H](c3c(F)cc(OC)cc3F)[C@H](NC(=O)c3ccc(OC(F)(F)F)cc3)C2=O)c1=O (stereo partly drawn) [Example 429]
35 | – | 5.8 nM | COc1ccc([C@@H]2CN(c3ccnn(CCC(F)(F)F)c3=O)C(=O)[C@H]2NC(=O)c2ccc(Cl)cc2)cc1 [Example 671]
36 | – | 13 nM | COc1cc(F)c([C@@H]2CN(c3c(C)ccn(CC(O)C4CC4)c3=O)C(=O)[C@H]2NC(=O)c2ccc(OC(F)(F)F)cc2)c(F)c1 (stereo partly drawn) [Example 683]
37 | 0.7 nM | – | COc1cc(F)c([C@@H]2CN(c3c(C)ccn(CC(O)C4CC4)c3=O)C(=O)[C@H]2NC(=O)c2ccc(OC(F)(F)F)cc2)c(F)c1 (stereo partly drawn) [Example 686]
